Reference: patent US6379670B1, “Methods for treatment of multiple sclerosis using peptide analogs of human myelin basic protein” (Neurocrine Biosciences, Inc., priority 1994, dated 2002)
Non-standard residues stand in square brackets, D forms with d. No end group written: not given here.

Columns and labels:
[1] = test system: Dr4 Dw4 restricted human T cell clone MS-1; test: Human T cell proliferation, Dr4 Dw4 restricted clone MS-1; format: cell-based; settings: FIG. 20
Protocol: (§1) Human T cells reactive to MBP (83-99) may alternatively be used to measure the ability of the peptide analog to inhibit proliferation of T cells induced by native MBP (83-99) peptide. MBP-specific T cells may be obtained as previously described by Martin et al., J. Immunol. 148:1359-1366, 1992. Briefly, T cell lines are established by culture of human T cells with irradiated, DR-matched peripheral blood cells in MEM supplemented with 2 mM L-glutamine, 50 μg/ml gentamicin, penicillin and streptomycin, 100 U/ml rIL-2, and 10% human AB negative serum. Proliferation of these T cell lines is stimulated by culturing a clone with varying concentration (1.1-30 μM) of native […] peptide, 50 μM of the peptide analog or SWM peptide, in the presence of irradiated, DR matched peripheral blood cells, following incubation for approximately 60 hours, the cells are pulsed with ^3H-thymidine for 12 hours and harvested. The amount of incorporated ^3H-thymidine is measured.
The ability of the peptide analogs NBI-5719, 5748, 5765, 5788 and 5789 (SEQ ID NOs: 4-8 respectively) to affect human T cell proliferation was assessed. […] The amount of tritiated thymidine incorporated was measured, and the data represented as the mean plus or minus the standard error of the mean of replicate samples.

[2] = test system: Dr2b restricted human T cell clones reactive to MBP; test: Human T cell proliferation, Dr2b restricted clones; format: cell-based; settings: Dr2b restricted clone 5F6, 50 μM, FIG. 19
Protocol: as §1
The ability of the peptide analogs NBI-5719, 5748, 5765, 5788 and 5789 (SEQ ID NOs: 4-8 respectively) to affect human T cell proliferation was assessed. A constant amount of peptide analog or the control peptide SWM (50 μM) was cultured with varying concentrations of native MBP(83-99) peptide (1.1-30 μM) in the presence of irradiated, DR matched peripheral blood cells and T cell clones derived from various MS patients. Human T cells (1×10^6) were cultured with DR matched, irradiated peripheral blood cells (PBL, 5×10^6) in medium containing IMDM supplemented with 3 μM MBP83-99, 2 mM L-glutamine, 50 μg/ml gentamicin penicillin/streptomycin, 100 U/ml r1L-2 and 10% human AB-negative serum. Cells were cultured for approximately 60 hours, pulsed with tritiated thymidine for 12 hours, and harvested. The amount of tritiated thymidine incorporated was measured, and the data represented as the mean plus or minus the standard error of the mean of replicate samples.
The ability of the peptide analog to inhibit the proliferative response of MBP-reactive T cells isolated from Dr2b (DrB1* 1501) individuals was determined. A constant amount of NBI-5788 (50 μM) was cultured with varying concentrations of native peptide (1.1-30 μM) in the presence of irradiated, DR matched peripheral blood cells and T cell clones derived from various MS patients.

[3] = test system: EAE in Lewis rats; test: Treatment of MBP(83-99)-induced EAE in Lewis rats with peptide analogs (subcutaneous); format: in vivo, Lewis rat; settings: 13.2 mg/kg subcutaneously on day 9, FIGS. 10 and 11
Protocol: In this system, experimental allergic encephalomyelitis (EAE) was induced in twelve female Lewis rats by injection of MBP(83-99) peptide in complete Freund's adjuvant (CFA) at the base of the tail. Nine days later, rats were divided into two groups of six animals and subcutaneously injected with 13.2 mg/kg of either peptide analog or a control peptide, sperm whale myoglobin (SWM) (110-121). Animals were monitored daily for disease symptoms and scored in a blinded fashion on a nonlinear ascending scale of 0-4 with increments denoting increasing paralysis. Each individual score was averaged with group cohorts to obtain the mean clinical score.

[4] = test system: EAE in SJL/J mice; test: Inhibition of chronic relapsing EAE in SJL/J mice; format: in vivo, mouse; settings: 20 mg/kg intraperitoneally weekly for 4 weeks
Protocol: The SJL/J (H-2^5) mouse develops a chronic relapsing form of EAE in response to immunization with MBP(83-99) peptide in the presence of pertussis vaccine. The ability of the peptide analogs NBI-5719 (SEQ ID NO:4) and NBI-5765 (SEQ ID NO:6) to inhibit the disease was evaluated (see FIG. 12).
Groups of 10 animals were injected intraperitoneally weekly for 4 weeks with 20 mg/kg of either a control peptide or the peptide analog. The animals were then monitored for disease over the next 2-3 months. […] Beginning around day 70, a relapse occurred reaching a mean clinical score of about 1. […] This is particularly striking since the animals had not been exposed to the APL for approximately one month.

[5] = test system: Dr2b-restricted T cell clone 5F6; test: Cytokine production (TNF-α, IFN-γ) by T cell clone 5F6, EIA; format: cell-based, human; settings: even at concentrations of 50 μM (data not shown)
Protocol: As discussed in detail below, the production of cytokines may also be assessed. In particular, TNF-α and IFN-γ production are especially interesting. These pro-inflammatory cytokines are thought to play a role in the pathogenesis of the disease. Briefly, T cell clone is incubated in the presence of stimulating MBP peptide and peptide analog or control peptide (SWM) or medium only. After a 24 hour incubation, the levels of TNF-α and IFN-γ in the supernatant are determined using commercially available EIA kits (Endogen, Cambridge, Mass.).
The ability of the peptide analog ligand to influence cytokine production was next measured. The Dr2b-restricted T cell clone 5F6 was incubated in the presence of 3 μM MBP peptide with either 10 μM of NBI-5788 (SEQ ID NO:7) or SWM or medium only. As a control, cells were cultured in the presence of medium alone. After 24 hours, supernatants were removed and the levels of tumor necrosis factor alpha (TNF-α) and interferon-y (IFN-γ) determined using commercially available EIA kits.

[6] = test system: rat MHC class II I-A or I-E on splenic adherent cells; test: MHC binding assay (competition with biotin-labeled MBP peptide, flow cytometry); set-up: species or system Lewis rat; settings: at 100 μM
Protocol: Binding of peptides to MHC molecules may be assayed on whole cells. Briefly, Lewis rat spleen cells are cultured for 3 hours to allow adherent cells to stick to polystyrene petri dishes. Non-adherent cells are removed. Adherent cells, which contain cells expressing MHC class II molecules, are collected by scraping the dishes. The binding of peptide analogs to cells is measured by a fluorescence assay. In this assay, splenic adherent cells are mixed with different concentrations of peptide analogs and incubated for 1 hour at 37° in a CO2 incubator. Following incubation, biotinlabeled MBP (87-99) is added to the culture wells. The cells are incubated for another hour and then washed three times in medium. […] Fluorescence intensity is calculated by subtracting the fluorescence value obtained from cells stained with phycoerythrin-streptavidin alone (control staining) from the fluorescence value obtained from biotin-labeled MBP native peptide plus phycoerythrin-streptavidin (experimental staining). […] Percent inhibition is calculated for each analog and expressed as IC50 values.
The ability of MBP peptides and peptide analogs to bind MHC was measured. […] The binding of MBP (87-99) analogs was measured using a fluorescence assay. […] Percent inhibition was calculated for each analog and expressed as IC50 values.

[7] = test system: MS patients; settings: human, in vivo; cited from earlier work

For “NBI-5765: peptide analog of MBP (83-99), SEQ ID NO:6, sequence in FIG. 8 ([dA]NPVVHAFANIVTPRTP)”, the “inhibition of MBP-dependent proliferation of clone MS-1” value [1] was “inhibited the MBP-dependent proliferation in a concentration dependent fashion”, the “inhibition of MBP-dependent proliferation of clone 5F6” value [2] was “inhibited the MBP-dependent proliferation in a concentration dependent fashion” and the “effect on EAE disease severity versus control peptide” value [3] was “significantly reduced the magnitude of the disease”. The “effect on first phase of EAE” value ([4]; FIG. 12) was “reduced the level of the disease in the first phase”, the “effect on relapse of EAE” value ([4]; relapse around day 70) was “reduced the severity of the relapse” and the “stimulation of cytokine production over background by the analog itself” value [5] was “None”.

For “NBI-5789: peptide analog of MBP (83-99), SEQ ID NO:8, sequence in FIG. 8 ([dA]KPVVHAFANIVTPRTP)”, the “inhibition of MBP-dependent proliferation of clone 5F6” value [2] was “inhibited the MBP-dependent proliferation in a concentration dependent fashion” and the “stimulation of cytokine production over background by the analog itself” value [5] was “None”.

For “a83, A89, A91: analog with residue 83 altered to D-alanine, residue 89 to alanine, and residue 91 to alanine”, the “inhibition of binding of biotin-labeled MBP peptide to MHC” value [6] was 25%.

B1: IFN-γ: cytokine administered in a pilot study in MS patients (protein, UniProt P01579 24-161, looked up)
Interferon gamma: QDPYVKEAENLKKYFNAGHSDVADNGTLFLGILKNWKEESDRKIMQSQIVSFYFKLFKNFKDDQSIQKSVETIKEDMNVKFFNSNKKKRDDFEKLTNYSVTDLNVQRKAIHELIQVMAELSPAAKTGKRKRSQMLFRG
For B1, the “patients with a clinical exacerbation within one month after initiation of treatment” value [7] is given as 7 of 18.
